Laboratory results published in patent publication US20080319065A1, “Systemic and Intrathecal Effects of a Novel Series of Phospholipase A2 Inhibitors on Hyperalgesia and Spinal Pge2 Release” (The Regents of the University of California, priority 2005, published 2008).

Columns and labels:
[1] = test system: murine RAW 264.7 macrophage-like cell line; test: Long-term LPS stimulation, PGE2 release; format: cell-based
Procedure: Several 2-oxoamides were tested in the long-term lipopolysaccharide (LPS) stimulation pathway in the murine RAW 264.7 macrophage-like cell line. (Raschke, et al., Cell, 1978, 15, 261-267). This pathway requires GIVA PLA2 activity and results in the extracellular release of many eicosanoid compounds including the prostaglandin PGE2. (Gijon, et al., leukoc. Biol., 1999, 65, 330-336). […] In the low μM range, AX041 and AX073 reduced PGE2 release by roughly 40% (FIG. 1(D)). At 1 μM and 5 μM concentrations, small activations were often seen. The in vitro and cellular results together are consistent with the known roles of GVIA PLA2 given that AX010, a selective GVIA inhibitor, had no cellular effect. […] Inhibitors selective for GIVA PLA2 or dual specificity inhibitors reduce PGE2 levels, also consistent with the known role of GIVA PLA2 in PGE2 production.

[2] = target: T1, GV sPLA2 (Homo sapiens, UniProt P39877); test: GV sPLA2 activity assay; format: biochemical; settings: at 0.091 mole fraction
T1 sequence (P39877 21-138): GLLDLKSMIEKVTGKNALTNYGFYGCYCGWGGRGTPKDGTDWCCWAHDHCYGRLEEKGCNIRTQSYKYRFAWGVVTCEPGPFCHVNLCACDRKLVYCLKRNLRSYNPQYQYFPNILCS

[3] = test system: carrageenan-induced thermal hyperalgesia; test: Carrageenan-induced thermal hyperalgesia, paw withdrawal latency; format: in vivo, rat
Description: Male Holtzman Sprague-Dawley rats (300-350 g; Harlan Industries) were individually housed and maintained on a 12-hr light/dark cycle with free access to food and water. For spinal drug injections, lumbar catheters were implanted in rats under isoflurane anesthesia according to a modification of the procedure described by Yaksh (Yaksh and Rudy, supra, 1976). A polyethylene catheter (PE-5; Spectranetics, 0.014 in OD) was inserted into the intrathecal space and advanced to the rostral edge of the lumbar enlargement through an incision in the atlanto-occipital membrane. Five days after implantation rats were entered into the study. In separate experiments to assess spinal prostaglandins release, rats were prepared with lumbar loop dialysis catheters with three lumens, as previously described, see (Yaksh, et al., supra, 2001). Thermal hyperalgesia. Two approaches were employed to initiate a hyperalgesic state. An inflammation-evoked thermal hyperalgesia was induced by subcutaneous injection of 2 mg of carrageenan (Sigma, St. Louis, Mo., 100 μl of […] solution (w/v) in physiological saline) into the plantar surface of the left hind paw. To assess the thermally-evoked paw-withdrawal response, a commercially available device modeled after that described by Hargreaves and colleagues (Hargreaves, Pain, 32:77-88, 1988) was used (see, Dirig and Yaksh, Neurosci. Lett., 220:93-96, 1996; Dirig, et al., J. Neurosci. Methods, 76:183-191, 1997). In brief, the device consisted of a glass surface (maintained at 25° C.) on which the rats are placed individually in Plexiglas cubicles (9×22×25 cm). The thermal nociceptive stimulus originated from a focused projection bulb positioned below the glass surface. The stimulus was delivered separately to either hind paw of each test subject with the aid of an angled mirror mounted on the stimulus source. A timer was actuated with the light source, and latency was defined as the time required for the paw to show a brisk withdrawal as detected by photodiode motion sensors that stop the timer and terminate the stimulus. Paw withdrawal latencies (PWL) were assessed prior to any treatment (control) and at intervals after treatment. Left (injured) and right (uninjured) paw withdrawal latencies were assessed and plotted versus time. In addition, difference latency scores (uninjured-injured) were calculated and the average withdrawal latency over the post-injection observation intervals are calculated for comparison between treatment groups. Drugs were delivered systemically (IP) or spinally (IT). Intraperitoneal drugs were delivered uniformly in doses prepared in volumes of 0.5 ml/kg. Drugs injected IT were administered in a total volume of […] followed by a 10 μl flush using vehicle.

CCC(=O)C(=O)NCCCC(=O)OC [AX010]
inhibition of PGE2 release, in words [1]: did not inhibit PGE2 release

CCCCCCCCCCCCCCC(=O)C(=O)NCCCC(=O)OCC [AX048, Ethyl 4-[(2-oxohexadecanoyl)amino]butanoate]
efficacy against sPLA2 [2]: 61.5% | antihyperalgesic effect by pretreatment interval ([3]; 3 mg/kg IP, 15 min before carrageenan): minimal effects | antihyperalgesic effect by pretreatment interval ([3]; 3 mg/kg IP, 30 min before carrageenan): peak effects | reduction of carrageenan thermal hyperalgesia ([3]; 3 mg/kg IP, 30 min pretreatment): reduced the thermal hyperalgesia | antihyperalgesic effect by pretreatment interval ([3]; 3 mg/kg IP, 180 min before carrageenan): effects persisted | antihyperalgesic effect by pretreatment interval ([3]; 3 mg/kg IP, 360 min before carrageenan): no different from the control | dose dependency of anti-hyperalgesic effect ([3]; IP, 0.2-3 mg/kg): dose-dependent | ED50 ([3]; Rattus norvegicus, IP, carrageenan thermal hyperalgesia, read-out: IP ED50, dose that reduced the hyperalgesia by 50%): 1.2 mg/kg | attenuation of carrageenan thermal hyperalgesia ([3]; intrathecal 30 μg/10 μL, 15 min pretreatment): attenuated the thermal hyperalgesia
